Article PMC5218480 (PLoS ONE, 2017)

Tested on: MV-4-11 cells
Assay: Gene expression microarray analysis (Affymetrix PrimeView) and GSEA
Format: cell-based, human
Design: RFU PODN (11730768_x_at) / Fold change /veh PODN (11730768_x_at) / RFU LINC00158 (11744669_a_at) / Fold change /veh LINC00158 (11744669_a_at) / RFU DUSP10 (11751237_a_at) / Fold change /veh DUSP10 (11751237_a_at) / RFU ID3 (11757404_x_at) / Fold change /veh ID3 (11757404_x_at) / RFU PLEKHG5 (11737974_s_at) / Fold change /veh PLEKHG5 (11737974_s_at) / RFU LRRC4B (11730491_at) / Fold change /veh LRRC4B (11730491_at) / RFU GIMAP4 (11747438_a_at) / Fold change /veh GIMAP4 (11747438_a_at) / RFU KRT8 (11758183_x_at) / Fold change /veh KRT8 (11758183_x_at) / RFU CNN1 (11734310_a_at) / Fold change /veh CNN1 (11734310_a_at) / RFU VPS37D (11726825_at) / Fold change /veh VPS37D (11726825_at) / RFU C10orf10 (11716522_x_at) / Fold change /veh C10orf10 (11716522_x_at) / RFU KIR2DL2 /// KIR2DL4 /// KIR2DL5A /// KIR2DL5B /// KIR2DS1 /// KIR2DS2 /// KIR2DS3 /// KIR2DS4 /// KIR3DL3 /// KIR3DL3 /// KIR3DS1 (11738374_at) / Fold change /veh KIR2DL2 /// KIR2DL4 /// KIR2DL5A /// KIR2DL5B /// KIR2DS1 /// KIR2DS2 /// KIR2DS3 /// KIR2DS4 /// KIR3DL3 /// KIR3DL3 /// KIR3DS1 (11738374_at) / RFU C1QL1 (11718748_at) / Fold change /veh C1QL1 (11718748_at) / RFU TMPRSS4 (11747572_a_at) / Fold change /veh TMPRSS4 (11747572_a_at) / RFU HAMP (11756126_x_at) / Fold change /veh HAMP (11756126_x_at) / RFU RNFT2 (11725882_a_at) / Fold change /veh RNFT2 (11725882_a_at) / RFU NR4A2 (11747474_a_at) / Fold change /veh NR4A2 (11747474_a_at) / RFU ABCC12 (11746883_a_at) / Fold change /veh ABCC12 (11746883_a_at) / RFU TMEM136 (11760407_x_at) / Fold change /veh TMEM136 (11760407_x_at) / RFU CLDN22 /// WWC2 (11732394_at) / Fold change /veh CLDN22 /// WWC2 (11732394_at) / RFU HLA-DPB1 (11760878_x_at) / Fold change /veh HLA-DPB1 (11760878_x_at) / RFU SPINT1 (11716480_a_at) / Fold change /veh SPINT1 (11716480_a_at) / RFU GAP43 (11754022_s_at) / Fold change /veh GAP43 (11754022_s_at) / RFU A4GNT (11735810_at) / Fold change /veh A4GNT (11735810_at) / RFU PRB3 (11715151_x_at) / Fold change /veh PRB3 (11715151_x_at) / RFU TUBB4B (11761932_at) / Fold change /veh TUBB4B (11761932_at) / RFU CAPN14 (11732068_a_at) / Fold change /veh CAPN14 (11732068_a_at) / RFU TMCC2 (11721928_a_at) / Fold change /veh TMCC2 (11721928_a_at) / RFU IRGQ (11745062_a_at) / Fold change /veh IRGQ (11745062_a_at) / RFU FAM174B (11720279_a_at) / Fold change /veh FAM174B (11720279_a_at) / RFU TMPRSS4 (11748680_a_at) / Fold change /veh TMPRSS4 (11748680_a_at) / RFU FAM212B (11763350_a_at) / Fold change /veh FAM212B (11763350_a_at) / RFU PLEKHG5 (11743358_a_at) / Fold change /veh PLEKHG5 (11743358_a_at) / RFU ZSCAN30 (11745921_a_at) / Fold change /veh ZSCAN30 (11745921_a_at) / RFU CMKLR1 (11741424_a_at) / Fold change /veh CMKLR1 (11741424_a_at) / RFU LOC101060620 /// MAPK8IP1 (11723275_at) / Fold change /veh LOC101060620 /// MAPK8IP1 (11723275_at) / RFU SPTSSB (11747773_x_at) / Fold change /veh SPTSSB (11747773_x_at) / RFU PRSS12 (11739890_at) / Fold change /veh PRSS12 (11739890_at) / RFU BIN1 (11741810_x_at) / Fold change /veh BIN1 (11741810_x_at) / RFU WNT11 (11732464_a_at) / Fold change /veh WNT11 (11732464_a_at) / RFU C10orf10 (11716521_a_at) / Fold change /veh C10orf10 (11716521_a_at) / RFU C5orf56 (11738089_at) / Fold change /veh C5orf56 (11738089_at) / RFU CYB561 (11721691_x_at) / Fold change /veh CYB561 (11721691_x_at) / RFU ANKRD19P (11752326_a_at) / Fold change /veh ANKRD19P (11752326_a_at) / RFU OR2T12 /// OR2T33 /// OR2T8 (11738714_s_at) / Fold change /veh OR2T12 /// OR2T33 /// OR2T8 (11738714_s_at) / RFU VCAN (11748164_a_at) / Fold change /veh VCAN (11748164_a_at) / RFU JSRP1 (11732532_at) / Fold change /veh JSRP1 (11732532_at) / RFU KRTAP10-11 (11738290_x_at) / Fold change /veh KRTAP10-11 (11738290_x_at) / RFU MYO3A (11730013_a_at) / Fold change /veh MYO3A (11730013_a_at) / RFU EBF3 (11725865_a_at) / Fold change /veh EBF3 (11725865_a_at) / RFU CAMK2N1 (11719241_x_at) / Fold change /veh CAMK2N1 (11719241_x_at) / RFU C5orf56 (11738088_a_at) / Fold change /veh C5orf56 (11738088_a_at) / RFU OLFML3 (11715873_a_at) / Fold change /veh OLFML3 (11715873_a_at) / RFU LOC100653217 /// NTM (11731650_a_at) / Fold change /veh LOC100653217 /// NTM (11731650_a_at) / RFU MAPK11 (11762145_a_at) / Fold change /veh MAPK11 (11762145_a_at) / RFU FIZ1 (11724087_x_at) / Fold change /veh FIZ1 (11724087_x_at) / RFU OASL (11726364_x_at) / Fold change /veh OASL (11726364_x_at) / RFU SOX15 (11748057_x_at) / Fold change /veh SOX15 (11748057_x_at) / RFU CD79A (11719716_a_at) / Fold change /veh CD79A (11719716_a_at) / RFU HIST1H1D (11736915_at) / Fold change /veh HIST1H1D (11736915_at) / RFU CASKIN2 (11723855_a_at) / Fold change /veh CASKIN2 (11723855_a_at) / RFU LOC730098 (11760151_x_at) / Fold change /veh LOC730098 (11760151_x_at) / RFU OR4N2 (11742367_at) / Fold change /veh OR4N2 (11742367_at) / RFU PRRT2 (11749266_a_at) / Fold change /veh PRRT2 (11749266_a_at) / RFU SNX32 (11753110_a_at) / Fold change /veh SNX32 (11753110_a_at) / RFU CDHR5 (11726645_a_at) / Fold change /veh CDHR5 (11726645_a_at) / RFU RCAN1 (11760418_a_at) / Fold change /veh RCAN1 (11760418_a_at) / RFU FAM167A (11723789_a_at) / Fold change /veh FAM167A (11723789_a_at) / RFU FAM26E (11764081_at) / Fold change /veh FAM26E (11764081_at) / RFU ISYNA1 (11749810_s_at) / Fold change /veh ISYNA1 (11749810_s_at) / RFU ACY1 (11761880_at) / Fold change /veh ACY1 (11761880_at) / RFU 11764098_at / Fold change /veh 11764098_at / RFU SAMD14 (11745864_x_at) / Fold change /veh SAMD14 (11745864_x_at) / RFU NPB (11741838_a_at) / Fold change /veh NPB (11741838_a_at) / RFU TMPRSS6 (11731388_a_at) / Fold change /veh TMPRSS6 (11731388_a_at) / RFU KRTAP10-2 (11738614_at) / Fold change /veh KRTAP10-2 (11738614_at) / RFU ARHGAP8 /// PRR5-ARHGAP8 (11727945_x_at) / Fold change /veh ARHGAP8 /// PRR5-ARHGAP8 (11727945_x_at) / RFU KRTAP5-7 /// NADSYN1 (11734609_at) / Fold change /veh KRTAP5-7 /// NADSYN1 (11734609_at) / RFU RASL12 (11751679_a_at) / Fold change /veh RASL12 (11751679_a_at) / RFU CDKN2B (11736163_a_at) / Fold change /veh CDKN2B (11736163_a_at) / RFU PRF1 (11729649_at) / Fold change /veh PRF1 (11729649_at) / RFU, ZNF638 /// ZNF638-IT1 / Fold change vs veh, ZNF638 /// ZNF638-IT1 / RFU, PANK3 / Fold change vs veh, PANK3 / RFU, SH3YL1 / Fold change vs veh, SH3YL1 / RFU, ZEB2 / Fold change vs veh, ZEB2 / RFU, NRIP1 / Fold change vs veh, NRIP1 / RFU, PTTG1IP / Fold change vs veh, PTTG1IP / RFU, CAPN2 / Fold change vs veh, CAPN2 / RFU, MED14 / Fold change vs veh, MED14 / RFU, SNORA58 / Fold change vs veh, SNORA58 / RFU, C1orf63 / Fold change vs veh, C1orf63 / RFU, LRRFIP1 / Fold change vs veh, LRRFIP1 / RFU, NDUFAF7 / Fold change vs veh, NDUFAF7 / RFU, SLC12A2 / Fold change vs veh, SLC12A2 / RFU, IBTK / Fold change vs veh, IBTK / RFU, ESF1 / Fold change vs veh, ESF1 / Fold change vs veh, TMEM50B / RFU, TAOK1 / Fold change vs veh, TAOK1 / RFU, ACBD3 / Fold change vs veh, ACBD3 / RFU, TMA16 / Fold change vs veh, TMA16 / RFU, RWDD3 / Fold change vs veh, RWDD3 / RFU, BCAT1 / Fold change vs veh, BCAT1 / RFU, EDEM3 / Fold change vs veh, EDEM3 / RFU, TMEM33 / Fold change vs veh, TMEM33 / RFU, WDR75 / Fold change vs veh, WDR75 / RFU, AHCTF1 / Fold change vs veh, AHCTF1 / RFU, TFRC / Fold change vs veh, TFRC / RFU, ZDHHC17 / Fold change vs veh, ZDHHC17 / RFU, NOM1 / Fold change vs veh, NOM1 / RFU, ARL8B / Fold change vs veh, ARL8B / RFU, ZBTB11 / Fold change vs veh, ZBTB11 / RFU, TAMM41 / Fold change vs veh, TAMM41 / RFU, KIAA1704 /// LOC100996395 / Fold change vs veh, KIAA1704 /// LOC100996395 / RFU, ING1 / Fold change vs veh, ING1 / RFU, TRMT61B / Fold change vs veh, TRMT61B / RFU, FUBP3 / Fold change vs veh, FUBP3 / RFU, TP53 / Fold change vs veh, TP53 / RFU, TNKS2 / Fold change vs veh, TNKS2 / RFU, ZFP14 / Fold change vs veh, ZFP14 / RFU, ACTR2 / Fold change vs veh, ACTR2 / RFU, PPP3R1 / Fold change vs veh, PPP3R1 / RFU, PIK3R1 / Fold change vs veh, PIK3R1 / RFU, HNRNPA1 / Fold change vs veh, HNRNPA1 / RFU, RNF170 / Fold change vs veh, RNF170 / RFU, ZNF28 / Fold change vs veh, ZNF28 / RFU, RNGTT / Fold change vs veh, RNGTT / RFU, OGT / Fold change vs veh, OGT / RFU, BRD1 / Fold change vs veh, BRD1 / RFU, MARS / Fold change vs veh, MARS / RFU, ZNF655 / Fold change vs veh, ZNF655 / RFU, FAHD1 / Fold change vs veh, FAHD1 / RFU, BDP1 / Fold change vs veh, BDP1 / RFU, LRRCC1 / Fold change vs veh, LRRCC1 / RFU, ARID1A / Fold change vs veh, ARID1A / RFU, ZNF146 / Fold change vs veh, ZNF146 / RFU, ZNF330 / Fold change vs veh, ZNF330 / RFU, GPN3 / Fold change vs veh, GPN3 / RFU, C9orf123 / Fold change vs veh, C9orf123 / RFU, N4BP2L2 / Fold change vs veh, N4BP2L2 / RFU, ARFIP1 / Fold change vs veh, ARFIP1 / RFU, FAM179B / Fold change vs veh, FAM179B / RFU, BCL10 / Fold change vs veh, BCL10 / RFU, UHRF1BP1L / Fold change vs veh, UHRF1BP1L / RFU, BET1 / Fold change vs veh, BET1 / RFU, CNOT2 / Fold change vs veh, CNOT2 / RFU, ZNF268 / Fold change vs veh, ZNF268 / Fold change vs veh, ZNF507 / RFU, DGCR2 / Fold change vs veh, DGCR2 / RFU, WDSUB1 / Fold change vs veh, WDSUB1 / Fold change vs veh, HSP90B1 /// MIR3652 / RFU, ADSS / Fold change vs veh, ADSS / RFU, GK / Fold change vs veh, GK / RFU, ZNF148 / Fold change vs veh, ZNF148 / RFU, TAF9 / Fold change vs veh, TAF9 / RFU, SLC1A5 / Fold change vs veh, SLC1A5 / RFU, SLMO2 / Fold change vs veh, SLMO2 / RFU, ABCC4 / Fold change vs veh, ABCC4 / RFU, LOC101060439 /// RAP1B / Fold change vs veh, LOC101060439 /// RAP1B / RFU, RFX7 / Fold change vs veh, RFX7 / RFU, GTPBP10 / Fold change vs veh, GTPBP10 / RFU, CNEP1R1 / Fold change vs veh, CNEP1R1 / RFU, BIVM-ERCC5 /// ERCC5 / Fold change vs veh, BIVM-ERCC5 /// ERCC5 / RFU, ILF3 / Fold change vs veh, ILF3 / RFU 11762660_at / Fold change /veh 11762660_at / RFU VCAN (11757783_s_at) / Fold change /veh VCAN (11757783_s_at) / RFU DDX43 (11728927_at) / Fold change /veh DDX43 (11728927_at) / RFU KRT8 (11758188_x_at) / Fold change /veh KRT8 (11758188_x_at) / RFU NKD1 (11759106_at) / Fold change /veh NKD1 (11759106_at) / RFU SRD5A1 (11742802_a_at) / Fold change /veh SRD5A1 (11742802_a_at) / RFU TPSAB1 /// TPSB2 (11721975_s_at) / Fold change /veh TPSAB1 /// TPSB2 (11721975_s_at) / RFU GSTM3 (11746129_a_at) / Fold change /veh GSTM3 (11746129_a_at) / RFU IL23R (11737362_x_at) / Fold change /veh IL23R (11737362_x_at) / RFU TMEM51 (11727254_a_at) / Fold change /veh TMEM51 (11727254_a_at) / RFU PIWIL2 (11732686_x_at) / Fold change /veh PIWIL2 (11732686_x_at) / RFU ORM1 (11744905_x_at) / Fold change /veh ORM1 (11744905_x_at) / RFU CCDC152 (11743942_at) / Fold change /veh CCDC152 (11743942_at) / RFU ECM1 (11717891_a_at) / Fold change /veh ECM1 (11717891_a_at) / RFU IL23R (11748794_a_at) / Fold change /veh IL23R (11748794_a_at) / RFU TNFAIP8L3 (11732012_x_at) / Fold change /veh TNFAIP8L3 (11732012_x_at) / RFU MBOAT4 (11741988_at) / Fold change /veh MBOAT4 (11741988_at) / RFU 11764193_at / Fold change /veh 11764193_at / RFU TMEM53 (11763286_at) / Fold change /veh TMEM53 (11763286_at) / RFU MAGEB2 (11727129_at) / Fold change /veh MAGEB2 (11727129_at) / RFU TMEM200A (11744735_a_at) / Fold change /veh TMEM200A (11744735_a_at) / RFU CCDC152 (11751479_a_at) / Fold change /veh CCDC152 (11751479_a_at) / RFU FAM211A (11726209_a_at) / Fold change /veh FAM211A (11726209_a_at) / RFU RGS16 (11746705_a_at) / Fold change /veh RGS16 (11746705_a_at) / RFU VCAN (11755009_s_at) / Fold change /veh VCAN (11755009_s_at) / RFU RHOB (11743442_s_at) / Fold change /veh RHOB (11743442_s_at) / RFU RGS16 (11720943_a_at) / Fold change /veh RGS16 (11720943_a_at) / RFU RGS16 (11720944_at) / Fold change /veh RGS16 (11720944_at) / RFU, VPS4B / Fold change vs veh, VPS4B / RFU, CREB1 / Fold change vs veh, CREB1 / RFU, DNAJC13 / Fold change vs veh, DNAJC13 / RFU, GNAQ / Fold change vs veh, GNAQ / RFU, CDK5R1 / Fold change vs veh, CDK5R1 / RFU, ZRANB3 / Fold change vs veh, ZRANB3 / RFU, CUL4A / Fold change vs veh, CUL4A / RFU, CCNY / Fold change vs veh, CCNY / RFU, UFL1 / Fold change vs veh, UFL1 / RFU, COG3 / Fold change vs veh, COG3 / RFU, DIAPH2 / Fold change vs veh, DIAPH2 / RFU, SKA2 / Fold change vs veh, SKA2 / RFU, AFF3 / Fold change vs veh, AFF3 / RFU, LMF1 / Fold change vs veh, LMF1 / RFU, IPO11 / Fold change vs veh, IPO11 / RFU, DFFB / Fold change vs veh, DFFB / RFU, FOXP1 / Fold change vs veh, FOXP1 / RFU, CARD8 / Fold change vs veh, CARD8 / RFU, STRN3 / Fold change vs veh, STRN3 / RFU, ADK / Fold change vs veh, ADK / RFU, RASSF2 / Fold change vs veh, RASSF2 / RFU, WIPF1 / Fold change vs veh, WIPF1 / RFU, LARP1B / Fold change vs veh, LARP1B / RFU, RASA1 / Fold change vs veh, RASA1 / RFU, RB1 / Fold change vs veh, RB1 / RFU, PPFIA1 / Fold change vs veh, PPFIA1 / RFU, MAT2A / Fold change vs veh, MAT2A / RFU, CCT5 / Fold change vs veh, CCT5 / RFU, WDR92 / Fold change vs veh, WDR92 / RFU, CUX1 / Fold change vs veh, CUX1 / RFU, TTC7A / Fold change vs veh, TTC7A / RFU, TMEM135 / Fold change vs veh, TMEM135 / RFU, DEPTOR / Fold change vs veh, DEPTOR / RFU, CPM / Fold change vs veh, CPM / RFU, DNAJB6 / Fold change vs veh, DNAJB6 / RFU, CACNA2D3 / Fold change vs veh, CACNA2D3 / RFU, DTX4 / Fold change vs veh, DTX4 / RFU, TFCP2 / Fold change vs veh, TFCP2 / RFU, GMCL1 /// GMCL1P1 / Fold change vs veh, GMCL1 /// GMCL1P1 / RFU, AEBP2 / Fold change vs veh, AEBP2 / RFU, SNHG1 /// SNORD22 /// SNORD25 /// SNORD26 /// SNORD27 /// SNORD28 /// SNORD29 /// SNORD31 / Fold change vs veh, SNHG1 /// SNORD22 /// SNORD25 /// SNORD26 /// SNORD27 /// SNORD28 /// SNORD29 /// SNORD31 / Fold change (Aza/veh), C12orf56 (ProbeSet 11735607_a_at) / Fold change (ACY-1035/veh), C12orf56 (ProbeSet 11735607_a_at) / Fold change (Aza/veh), FGFR1OP (ProbeSet 11751329_s_at) / Fold change (ACY-1035/veh), FGFR1OP (ProbeSet 11751329_s_at) / Fold change (Aza/veh), VPS36 (ProbeSet 11739960_a_at) / Fold change (ACY-1035/veh), VPS36 (ProbeSet 11739960_a_at) / RFU SYPL1 (11715823_x_at) / Fold change /veh SYPL1 (11715823_x_at) / RFU IGFBP7 (11715501_s_at) / Fold change /veh IGFBP7 (11715501_s_at) / RFU REEP3 (11722064_at) / Fold change /veh REEP3 (11722064_at) / RFU IGLL1 (11728026_x_at) / Fold change /veh IGLL1 (11728026_x_at): dose or concentration left out as unconfirmed
Details: ProbeSet 11754607_s_at; LIST B

In the case of Nc1ncn([C@@H]2O[C@H](CO)[C@@H](O)[C@H]2O)c(=O)n1 [azacitidine], the “Fold change vs veh, HSP90B1 /// MIR3652” value is reported as 0.90.
